Laboratory results published in patent US10111862B2, “Traps in the treatment of macular degeneration” (Aldeyra Therapeutics, Inc., priority 2013, dated 2018).

Assay: RAL depletion by compounds in rod outer segment preparation
Assay type: biochemical, bovine
Settings: rod outer segment preparation containing 64 μM opsin at 37° C.; for Kapp, apparent equilibrium constant of RAL depletion / kapp, apparent second order rate constant of RAL depletion: nominal starting drug 1.00 mM, RAL 60 μM; for ΔGapp, apparent free energy change of RAL depletion: ΔGapp=−RT ln Kapp
Experimental: The parameters associated with the RAL depletion chemistry are as follows:
[drawing 47] kapp: apparent second order rate constant of RAL depletion by drug. Kapp: apparent equilibrium constant of RAL depletion by drug.
[formula] ΔGapp: apparent free energy change of RAL depletion by drug. ΔGapp=−RT ln Kapp (2) Kring: equilibrium constant of tautomerism from imine to oxaminal (ring closed).
Frozen bovine rod outer segment preparation (64 μM of opsin) is thawed and vortexed thoroughly. A 200 μL aliquot of this sample is transferred into a 0.5 mL Eppendorf tube. To it is added 10 μL of 20 mM drug stock solution in EtOH, and the mixture is vortexed for 1 min. The tube is incubated at 37° C. in a Thermo Scientific microprocessor controlled 280 series water bath for 3 min before 5 μL freshly prepared 2.4 mM RAL solution in EtOH is added (the nominal starting concentrations of drug and RAL are 1.00 mM and 60 μM, respectively). After vortexing for 1 min, the tube is incubated at 37° C. over time. Aliquots of the reaction mixture (25 μL each) are taken periodically, and added onto 10 mg of solid NaBH4 in a 0.5 mL Eppendorf tube. To the latter is added carefully 400 μL of 2:1 (v/v) EtOH/HOAc. The reduction mixture is vortexed for 1 min and centrifuged. The supernatant is separated, and analyzed by HPLC using a standard HPLC method:
Solvent A: 0.05% HCOOH/95% HPLC grade water/5% HPLC grade MeCN
Solvent B: 0.05% HCOOH HPLC grade MeCN
Detector wavelengths: 329 and 250 nm
Reference wavelength: 400 nm
The RAL depletion percentages are calculated by normalization of ROL and Re-RAL-drug peak integrals, which are then plotted against reaction time. Least squares fit of the RAL depletion plot according to pseudo-first order kinetics yields observed first order rate constant kobsd, and kapp is calculated according to kobsd=kapp[drug]. Kapp is calculated from the equilibrium concentrations of free RAL, free drug and RAL-drug according to equation (1). ΔGapp was calculated according equation (2).

With `Cc1ccc(-c2nc3cc(N)c(C(C)(C)O)c(Cl)c3o2)cc1` [Compound 2, 2-(5-amino-7-chloro-2-p-tolylbenzoxazol-6-yl)propan-2-ol] the “Kapp, apparent equilibrium constant of RAL depletion” value (shortened to “Kapp, apparent equilibrium constant”) was 2.29×10^6, the “kapp, apparent second order rate constant of RAL depletion” value was 24,700 M^−1·h^−1 and the “ΔGapp, apparent free energy change of RAL depletion” value (shortened to “ΔGapp, apparent free energy change”) was -9.0 kcal/mol.

In the case of `CC(C)(O)c1c(N)cc2nc(-c3ccccc3)oc2c1Cl` [Compound 3, 2-(5-amino-7-chloro-2-phenylbenzoxazol-6-yl)propan-2-ol], the “Kapp, apparent equilibrium constant” value is reported as 7.14×10^6, the “kapp, apparent second order rate constant of RAL depletion” value is reported as 21,600 M^−1·h^−1 and the “ΔGapp, apparent free energy change” value is reported as -9.7 kcal/mol.

In the case of `CC(C)(O)c1c(N)cc2onc(C3CC3)c2c1Cl` [Compound 4, 2-(6-amino-4-chloro-3-cyclopropylbenzisoxazol-5-yl)propan-2-ol], the “Kapp, apparent equilibrium constant” value is reported as >2 × 10^7, the “kapp, apparent second order rate constant of RAL depletion” value is reported as 31,700 M^−1·h^−1 and the “ΔGapp, apparent free energy change” value is reported as less than -10 kcal/mol.

With `CC(C)(O)c1c(N)cc2c(C3CC3)noc2c1Cl` [Compound 5, 2-(5-amino-7-chloro-3-cyclopropylbenzisoxazol-6-yl)propan-2-ol] the “Kapp, apparent equilibrium constant” value was >2 × 10^7, the “kapp, apparent second order rate constant of RAL depletion” value was 35,300 M^−1·h^−1 and the “ΔGapp, apparent free energy change” value was less than -10 kcal/mol.

In the case of `CC(C)(O)c1c(N)cc(Cl)c2c(C3CC3)noc12` [Compound 6, 2-(6-amino-4-chloro-3-cyclopropylbenzisoxazol-7-yl)propan-2-ol], the “Kapp, apparent equilibrium constant” value is reported as 3.35×10^6, the “kapp, apparent second order rate constant of RAL depletion” value is reported as 12,700 M^−1·h^−1 and the “ΔGapp, apparent free energy change” value is reported as -9.2 kcal/mol.

For `CC(C)(O)c1nc2ccc(Cl)cc2cc1N` [reference compound], the “Kapp, apparent equilibrium constant” value was 1.55 × 10^5, the “kapp, apparent second order rate constant of RAL depletion” value was 3,570 M^−1·h^−1 and the “ΔGapp, apparent free energy change” value was -7.4 kcal/mol.

With `CC(C)(O)c1cc2oc(-c3ccccc3)nc2cc1N` [reference compound] the “Kapp, apparent equilibrium constant” value was 1.25 × 10^6, the “kapp, apparent second order rate constant of RAL depletion” value was 25,500 M^−1·h^−1 and the “ΔGapp, apparent free energy change” value was -8.6 kcal/mol.
